In patent US3954840A, “1,3,5,7-Naphthalenetetracarboxylic acids and process for preparation thereof” (Teijin Ltd., priority 1973, dated 1976):
Values joined by “and” are separate entries in the source; they are usually repeats but may differ in a detail not shown here. Equal entries are not always repeated. “Also recorded” adds a separate entry of the source. Where two headings read alike, the source gives them in different places.

Legend:
[1] = Solubility of potassium naphthalenecarboxylates in pure water and in aqueous K4 XA solution (Table 1); format: physicochemical; settings: 30% aqueous k4xa
From the text: Generally, alkali metal naphthalenecarboxylates, taken individually, are easily soluble in a sufficient amount of water.

[2] = Solubility of potassium salts in water/methanol mixtures at 30°C (Table 4); format: physicochemical
Solubility in words = format: physicochemical; settings: for Solubility in aqueous medium: aqueous medium (acid precipitation / disproportionation)
[3] = Stability in water / acid; format: physicochemical
[4] = 30°C
Thermal stability = format: physicochemical
[5] = Solubility of K4 XA in aqueous potassium carbonate (Table 3); format: physicochemical; settings: water

O=C([O-])c1ccc2ccccc2c1.[K+]
Solubility in 100 g of a 30% by weight aqueous solution of tetrapotassium 1,3,5,7-naphthalenetetracarboxylate [1]: 0.3 g
Change of solubility with increasing methanol concentration [2]: decrease with higher methanol concentrations but not to such a great extent as in the case of K4 XA
Amount of solute dissolved in 100 g of a mixture of water and methanol ([2]; 30°C, methanol 40 wt. %): 45 g
Amount of solute dissolved in 100 g of a mixture of water and methanol ([2]; 30°C, methanol 60 wt. %): 30 g
Amount of solute dissolved in 100 g of a mixture of water and methanol ([2]; 30°C, methanol 80 wt. %): 19 g
Amount of solute dissolved in 100 g of a mixture of water and methanol ([2]; 30°C, methanol 100 wt. %): 9.3 g
Amount of solute dissolved in 100 g of a mixture of water and methanol ([2]; water): 80 g

CCCCCCCCCCCCOC(=O)c1cc(C(=O)OCCCCCCCCCCCC)c2cc(C(=O)OCCCCCCCCCCCC)cc(C(=O)OCCCCCCCCCCCC)c2c1 [tetra-n-dodecyl 1,3,5,7-naphthalenetetracarboxylate]
Solubility in acetone (Solubility in words; acetone): Readily soluble
Solubility in benzene (Solubility in words): Readily soluble
Solubility in chloroform (Solubility in words): Readily soluble
Solubility in ether(s) (Solubility in words): Readily soluble

O=C([O-])c1cc(C(=O)[O-])c2cc(C(=O)O)cc(C(=O)[O-])c2c1.[K+].[K+].[K+]
Stability in water [3]: Easily decomposable

O=C([O-])c1cc(C(=O)[O-])c2cc(C(=O)[O-])cc(C(=O)[O-])c2c1.[K+].[K+].[K+].[K+]
Amount of tetrapotassium salt dissolved in 100 g of a mixture of water and methanol ([4]; methanol 40%, K2CO3 0%): 9.0 g
Amount of tetrapotassium salt dissolved in 100 g of a mixture of water and methanol ([4]; methanol 40%, K2CO3 10%): 3.8 g
Amount of tetrapotassium salt dissolved in 100 g of a mixture of water and methanol ([4]; methanol 40%, K2CO3 20%): 1.0 g
Amount of tetrapotassium salt dissolved in 100 g of a mixture of water and methanol ([4]; methanol 40%, K2CO3 30%): 0.2 g
Amount of tetrapotassium salt dissolved in 100 g of a mixture of water and methanol ([4]; methanol 60%, K2CO3 0%): 1.7 g
Amount of tetrapotassium salt dissolved in 100 g of a mixture of water and methanol ([4]; methanol 60%, K2CO3 10%): 0.1 g
Amount of tetrapotassium salt dissolved in 100 g of a mixture of water and methanol ([4]; methanol 80%, K2CO3 0%): 0.13 g
Amount of tetrapotassium salt dissolved in 100 g of a mixture of water and methanol ([4]; methanol 80%, K2CO3 3%): < 0.01 g
Solubility in methanol (Solubility in words): slightly soluble
Solubility in water (Solubility in words): very high; also recorded: Readily soluble
Thermal stability (Thermal stability): almost no change occurred, but the product was stable
Solubility (grams of the potassium salt dissolved in 100 g of solvent) [5]: 57.0 g and 48.8 g
Change of solubility with increasing methanol concentration [2]: decreases abruptly

O=C([O-])c1ccc2cc(C(=O)[O-])ccc2c1.[K+].[K+]
Solubility in 100 g of a 30% by weight aqueous solution of tetrapotassium 1,3,5,7-naphthalenetetracarboxylate [1]: 1.0 g
Change of solubility with increasing methanol concentration [2]: decrease with higher methanol concentrations but not to such a great extent as in the case of K4 XA
Amount of solute dissolved in 100 g of a mixture of water and methanol ([2]; 30°C, methanol 40 wt. %): 8.5 g
Amount of solute dissolved in 100 g of a mixture of water and methanol ([2]; 30°C, methanol 60 wt. %): 3.6 g
Amount of solute dissolved in 100 g of a mixture of water and methanol ([2]; 30°C, methanol 80 wt. %): 0.88 g
Amount of solute dissolved in 100 g of a mixture of water and methanol ([2]; 30°C, methanol 100 wt. %): 0.17 g
Amount of solute dissolved in 100 g of a mixture of water and methanol ([2]; water): 32 g

O=C([O-])c1cc(C(=O)[O-])c2cc(C(=O)[O-])cc(C(=O)[O-])c2c1.[Na+].[Na+].[Na+].[Na+] [tetrasodium 1,3,5,7-naphthalenetetracarboxylate]
Thermal stability (Thermal stability; around 400°C): stable

O=C(O)c1cc(C(=O)O)c2cc(C(=O)O)cc(C(=O)O)c2c1 [1,3,5,7-naphthalenetetracarboxylic acid]
Solubility in alcohols (Solubility in words; alcohols): Insoluble
Solubility in aqueous medium (Solubility in words): very low solubility
Solubility in aqueous medium (Solubility in words; listed as H4 XA): almost insoluble
Solubility in benzene (Solubility in words): Insoluble
Solubility in ether(s) (Solubility in words): Insoluble
Solubility in various solvents (Solubility in words; various solvents): very low solubility
Solubility in water (Solubility in words; water): Insoluble
Thermal stability (Thermal stability; high temperatures (melting point above 300°C)): decomposed

CCCCOC(=O)c1cc(C(=O)OCCCC)c2cc(C(=O)OCCCC)cc(C(=O)OCCCC)c2c1 [tetra-n-butyl 1,3,5,7-naphthalenetetracarboxylate]
Solubility in chloroform (Solubility in words): Readily soluble
Solubility in ether(s) (Solubility in words): Readily soluble
Solubility in hot ethanol (Solubility in words; hot ethanol): Readily soluble

O.O.O=C([O-])c1cc(C(=O)[O-])c2cc(C(=O)[O-])cc(C(=O)[O-])c2c1.[K+].[K+].[K+].[K+] [Tetrapotassium 1,3,5,7-naphthalenetetracarboxylate dihydrate]
Amount of solute dissolved in 100 g of a mixture of water and methanol ([2]; 30°C, methanol 0 wt. %): 45 g
Amount of solute dissolved in 100 g of a mixture of water and methanol ([2]; 30°C, methanol 40 wt. %): 9 g
Amount of solute dissolved in 100 g of a mixture of water and methanol ([2]; 30°C, methanol 60 wt. %): 1.7 g
Amount of solute dissolved in 100 g of a mixture of water and methanol ([2]; 30°C, methanol 80 wt. %): 0.13 g
Amount of solute dissolved in 100 g of a mixture of water and methanol ([2]; 30°C, methanol 100 wt. %): 0.30 g

O=C(O)c1cc(C(=O)O)c2cc(C(=O)O)cc(C(=O)[O-])c2c1.[K+]
Solubility in water (Solubility in words): difficultly soluble
